pIC50: −log10 of the molar value. Active and inactive are the calls of the source. The rule behind the calls is not given here.
Columns and labels:
[1] = Growth inhibition of human HCT15 cells by SRB assay; format: functional; details: HCT-15
[2] = Growth inhibition of human OVCAR5 cells by SRB assay; format: functional; details: OVCAR-5
[3] = Growth inhibition of human OVCAR3 cells by SRB assay; format: functional; details: OVCAR-3
[4] = Growth inhibition of human RXF631L cells by SRB assay; format: functional; details: for GI50: RXF 631
[5] = Growth inhibition of human SF295 cells by SRB assay; format: functional; details: SF-295
[6] = Growth inhibition of human MKN74 cells by SRB assay; format: functional; details: MKN-74, read-out: pGI50 (converted)
Mus musculus [7] = assay: In vivo inhibition of HIF1 transcriptional activity in nude mouse xenografted with human SUIT2/HRE-luc cells at 10 mg/kg, ip measured after 24 hrs by bioluminescence assay; format: functional, organism-based; design: dose 10 mg/kg
[8] = Inhibition of HIF-1 (unknown origin) expressed in human HeLa cells after 12 hrs by HRE luciferase reporter gene assay; format: cell-based
St-4 = assay: Growth inhibition of human St-4 cells by SRB assay; format: functional; details: St-4, read-out: pGI50 (converted)
[9] = Growth inhibition of human MKN7 cells by SRB assay; format: functional; details: MKN-7
[10] = Growth inhibition of human MKN1 cells by SRB assay; format: functional; details: MKN-1, read-out: pGI50 (converted)
SF-268 = assay: Growth inhibition of human SF268 cells by SRB assay; format: functional; details: SF-268, read-out: pGI50 (converted)
[11] = Growth inhibition of human MKN28 cells by SRB assay; format: functional; details: MKN-28
NCI-H460 = assay: Growth inhibition of human NCI-H460 cells by SRB assay; format: functional
SNB-75 = assay: Growth inhibition of human SNB75 cells by SRB assay; format: functional; details: SNB-75, read-out: pGI50 (converted)
[12] = Growth inhibition of human SNB78 cells by SRB assay; format: functional; details: SNB-78, read-out: pGI50 (converted)
U-251 = assay: Growth inhibition of human U251 cells by SRB assay; format: functional
KM12 = assay: Growth inhibition of human KM12 cells by SRB assay; format: functional
[13] = Growth inhibition of human BSY1 cells by SRB assay; format: functional; details: BSY-1
SK-OV-3 = assay: Growth inhibition of human SKOV3 cells by SRB assay; format: functional
[14] = Growth inhibition of human OVCAR8 cells by SRB assay; format: functional; details: OVCAR-8
[15] = Growth inhibition of human HBC5 cells by SRB assay; format: functional
ACHN = assay: Growth inhibition of human ACHN cells by SRB assay; format: functional
A549 = assay: Growth inhibition of human A549 cells by SRB assay; format: functional
[16] = Growth inhibition of human HCC2998 cells by SRB assay; format: functional; details: HCC 2998, read-out: pGI50 (converted)
[17] = Growth inhibition of human HBC4 cells by SRB assay; format: functional; details: HBC4, read-out: pGI50 (converted)
NCI-H226 = assay: Growth inhibition of human NCI-H226 cells by SRB assay; format: functional
Mus musculus [18] = assay: In vivo inhibition of HIF1 transcriptional activity in nude mouse xenografted with human SUIT2/HRE-luc cells at 10 mg/kg, ip measured after 12 hrs by bioluminescence assay; format: functional, organism-based; design: dose 10 mg/kg
[19] = Growth inhibition of human SF539 cells by SRB assay; format: functional; details: SF-539, read-out: pGI50 (converted)
HT-29 = assay: Growth inhibition of human HT-29 cells by SRB assay; format: functional; details: HT-29, read-out: pGI50 (converted)
MCF7 = assay: Growth inhibition of human MCF7 cells by SRB assay; format: functional
PC-3 = assay: Growth inhibition of human PC3 cells by SRB assay; format: functional
[20] = Growth inhibition of human DMS114 cells by SRB assay; format: functional; details: DMS-114
[21] = Growth inhibition of human MKN45 cells by SRB assay; format: functional; details: MKN-45
DU-145 = assay: Growth inhibition of human DU145 cells by SRB assay; format: functional; details: DU-145, read-out: pGI50 (converted)
NCI-H23 = assay: Growth inhibition of human NCI-H23 cells by SRB assay; format: functional; details: NCI-H23, read-out: pGI50 (converted)
[22] = Growth inhibition of human LOXIMVI cells by SRB assay; format: functional; details: LOX IMVI
[23] = Growth inhibition of human OVCAR4 cells by SRB assay; format: functional; details: OVCAR-4, read-out: pGI50 (converted)
[24] = Growth inhibition of human DMS273 cells by SRB assay; format: functional; details: DMS-273
NCI-H522 = assay: Growth inhibition of human NCI-H522 cells by SRB assay; format: functional
MDA-MB-231 = assay: Growth inhibition of human MDA-MB-231 cells by SRB assay; format: functional
HCT-116 = assay: Growth inhibition of human HCT116 cells by SRB assay; format: functional
[25] = Drug uptake in nucleus of human NCI-H226 cells azide-Alexa 488-based fluorescent microscopy; format: ADME, cell-based
[26] = Drug uptake in granular vesicle of human RXF631L cells azide-Alexa 488-based fluorescent microscopy; format: ADME
[27] = Drug uptake in granular vesicle of human MKN1 cells azide-Alexa 488-based fluorescent microscopy; format: ADME, cell-based; details: mkn-1
[28] = Drug uptake in granular vesicle of human NCI-H226 cells azide-Alexa 488-based fluorescent microscopy; format: ADME, cell-based
[29] = Drug uptake in nucleus of human RXF631L cells azide-Alexa 488-based fluorescent microscopy; format: ADME
[30] = Drug uptake in cytoplasm of human NCI-H226 cells azide-Alexa 488-based fluorescent microscopy; format: ADME, cell-based
[31] = Drug uptake in cytoplasm of human RXF631L cells azide-Alexa 488-based fluorescent microscopy; format: ADME

OCc1ccc(-c2nn(Cc3c(F)cccc3F)c3ccccc23)o1
GI50 [1]: 41.7 µM | GI50 [2]: 72.4 µM | GI50 [3]: 75.9 µM | GI50 [4]: 0.0447 µM | GI50 [5]: 49 µM | GI50 [6]: > 100 µM | inhibition (Mus musculus [7]): inactive | pIC50 [8]: 7.00 | GI50 (St-4): > 100 µM | GI50 [9]: 36.3 µM | GI50 [10]: > 100 µM | GI50 (SF-268): > 100 µM | GI50 [11]: 51.3 µM | GI50 (NCI-H460): 41.7 µM | GI50 (SNB-75): > 100 µM | GI50 [12]: > 100 µM | GI50 (U-251): 95.5 µM | GI50 (KM12): 79.4 µM | GI50 [13]: 29.5 µM | GI50 (SK-OV-3): 53.7 µM | GI50 [14]: 77.6 µM | GI50 [15]: 30.2 µM | GI50 (ACHN): 74.1 µM | GI50 (A549): 66.1 µM | GI50 [16]: > 100 µM | GI50 [17]: > 100 µM | GI50 (NCI-H226): 0.0513 µM | inhibition (Mus musculus [18]): Active | GI50 [19]: > 100 µM | GI50 (HT-29): > 100 µM | GI50 (MCF7): 38 µM | GI50 (PC-3): 43.7 µM | GI50 [20]: 41.7 µM | GI50 [21]: 24 µM | GI50 (DU-145): > 100 µM | GI50 (NCI-H23): > 100 µM | GI50 [22]: 24.5 µM | GI50 [23]: > 100 µM | GI50 [24]: 50.1 µM | GI50 (NCI-H522): 17.8 µM | GI50 (MDA-MB-231): 25.1 µM | GI50 (HCT-116): 58.9 µM

OCc1ccc(-c2nn(Cc3ccccc3C(F)(F)F)c3ccccc23)o1
pIC50 [8]: 4.86

OCc1ccc(-c2nn(Cc3ccccc3F)c3ccccc23)o1
pIC50 [8]: 6.59

N#Cc1ccc(Cn2nc(-c3ccc(CO)o3)c3ccccc32)cc1
pIC50 [8]: 6.57

OCc1ccc(-c2nn(Cc3ccccn3)c3ccccc23)o1
pIC50 [8]: 6.52

OCc1ccc(-c2nn(Cc3ccncc3)c3ccccc23)o1
pIC50 [8]: 6.08

OCc1ccc(-c2nn(Cc3ccc(-c4ccccc4)cc3)c3ccccc23)o1
pIC50 [8]: 5.48

O=Cc1ccc(-c2nn(Cc3ccccc3)c3ccccc23)o1
pIC50 [8]: 5.05

OCc1ccc(-c2nn(Cc3ccccc3Cl)c3ccccc23)o1
pIC50 [8]: 6.19

COc1ccc(Cn2nc(-c3ccc(CO)o3)c3ccccc32)cc1
pIC50 [8]: 6.01

[N-]=[N+]=Nc1ccc(Cn2nc(-c3ccc(CO)o3)c3ccccc32)cc1
pIC50 [8]: 5.91

OCc1ccc(-c2nn(Cc3cccc(F)c3)c3ccccc23)o1
pIC50 [8]: 6.32

OCc1ccc(-c2nn(Cc3c(F)c(F)cc(F)c3F)c3ccccc23)o1
inhibition (Mus musculus [7]): inactive | pIC50 [8]: 7.15

OCc1ccc(-c2nn(Cc3ccc(Cl)cc3)c3ccccc23)o1
pIC50 [8]: 5.55

OCc1ccc(-c2nn(Cc3ccc(F)cc3)c3ccccc23)o1
pIC50 [8]: 6.28

C#CC(O)c1ccc(-c2nn(Cc3ccccc3)c3ccccc23)o1 (centres undefined)
pIC50 [8]: < 4.52

OCc1ccc(-c2nn(Cc3c(F)c(F)c(F)c(F)c3F)c3ccccc23)o1
pIC50 [8]: 6.74

OCc1ccc(-c2nn(Cc3ccc(F)cc3F)c3ccccc23)o1
pIC50 [8]: 6.51

C#CCOCc1ccc(-c2nn(Cc3ccccc3)c3ccccc23)o1
pIC50 [8]: 5.15

C#CCNc1ccc(Cn2nc(-c3ccc(CO)o3)c3ccccc32)cc1
Drug uptake [25]: Active | pIC50 [8]: 6.21 | Drug uptake [26]: Active | Drug uptake [27]: Active | Drug uptake [28]: Not Active | Drug uptake [29]: Active | Drug uptake [30]: Active | Drug uptake [31]: Active

OCc1ccc(-c2nn(Cc3ccc(C(F)(F)F)cc3)c3ccccc23)o1
pIC50 [8]: 5.03

OCc1ccc(-c2nn(Cc3cccnc3)c3ccccc23)o1
pIC50 [8]: 6.34

OCc1ccc(-c2nn(Cc3ccccc3)c3ccccc23)o1
GI50 [4]: 0.158 µM | TGI ([4]; RXF 631, read-out: pTGI (converted)): 0.525 µM | inhibition (Mus musculus [7]): inactive | pIC50 [8]: 5.70 | GI50 (NCI-H226): 0.224 µM | CC50 (NCI-H226; read-out: pLC50 (the source's name) (converted)): 9.77 µM | TGI (NCI-H226; read-out: pTGI (converted)): 0.661 µM

[N-]=[N+]=NCc1ccc(Cn2nc(-c3ccc(CO)o3)c3ccccc32)cc1
pIC50 [8]: 6.15
